Values after ≈ are worked out from the molar mass of the structure shown.
Tested on: Mycobacterium tuberculosis
Experiment: Antitubercular activity against Multi-drug resistant Mycobacterium tuberculosis assessed as inhibition of bacterial growth incubated for 14 days by microplate alamar blue assay
Format: functional
Details: 336 h, time 14 day

Compound `CN1CCN(c2ccc(N3C[C@H](CO)OC3=O)cc2F)C=N1` [DELPAZOLID] has an MIC90 of 0.5 µg/mL (≈ 1.62 µM).

From ChEMBL document CHEMBL5550106, “Recent advances in the exploration of oxazolidinone scaffolds from compound development to antibacterial agents and other bioactivities” (Eur J Med Chem, 2024)
